Assay results reported in US5817651A, “3-arylcarbonyl-1-(C-attached-N-heteryl)-1H-indoles” (Sanofi, priority 1997, dated 1998).
Structures can show the parent of a compound that is named as a salt. Where two headings read alike, the source gives them in different places.

Columns and labels:
[1] = system: acetylcholine-induced abdominal constriction; test: acetylcholine-induced abdominal constriction test (ACH); format: in vivo; set-up: key to ACH remark (Depr. = depressant): The abbreviations IA and Depr. represent, respectively, inactive and depressant; The abbreviations IA and Depr. represent, respectively, inactive and depressant; details: mice; for ED50 / inhibition in vivo at 100 mg/kg: Mus musculus; for inhibition in vivo at 100 mg/kg: dose level 100, read-out: ACH percent inhibition at dose 100; for ACH remark (Depr. = depressant): remark beside the ED50
Source text: J. Pharmacol. Chemotherap. 32, 295 (1968); a modification of the anti-bradykinin test, which is also a primary analgesic screening procedure, described by Berkowitz et al., J. Pharmacol. Exptl. Therap. 177, 500-508 (1971), Blane et al., J. Pharm. Pharmacol. 19, 367-373 (1967), Botha et al., Eur. J. Pharmacol. 6, 312-321 (1969) and Deffenu et al., J. Pharm. Pharmacol. 18, 135 (1966); and the Randall-Selitto analgesic test described by Randall and Selitto, Arch. Int. Pharmacodyn., 111, 409-419 (1957).
Data in the developing adjuvant arthritis (AA) and plasma fibronectin (FN) assays are expressed as percent inhibition, i.e. inhibition of non-injected paw inflammation (NIP) and injected paw (RPV) and lowering of plasma fibronectin, the asterisks * and ** indicating statistical significance at the p<0.01 and p<0.05 levels, respectively. […] Non-statistically significant results are recorded as "------ ". In the acetylcholine-induced abdominal constriction test, the test compounds were administered either as suspensions in gum tragacanth (GT) or as aqueous solutions prepared by addition of just sufficient dilute aqueous methanesulfonic acid (MS) or dilute aqueous lactic acid (LA) to dissolve the compound. The compounds are identified by the example number above where their preparations are described. All data in the anti-bradykinin, rat writhing and Randall-Selitto tests were obtained on oral administration.

[2] = system: acetic acid-induced writhing; test: acetic acid-induced writhing assay in the rat (RW); format: in vivo; details: for ED50: Rattus norvegicus, po; for ED50 / RW ED50: oral administration
Procedure: (§1) Data in the developing adjuvant arthritis (AA) and plasma fibronectin (FN) assays are expressed as percent inhibition, i.e. inhibition of non-injected paw inflammation (NIP) and injected paw (RPV) and lowering of plasma fibronectin, the asterisks * and ** indicating statistical significance at the p<0.01 and p<0.05 levels, respectively. Compounds are considered active at p<0.05 level. Non-statistically significant results are recorded as "------ ". In the acetylcholine-induced abdominal constriction test, the test compounds were administered either as suspensions in gum tragacanth (GT) or as aqueous solutions prepared by addition of just sufficient dilute aqueous methanesulfonic acid (MS) or dilute aqueous lactic acid (LA) to dissolve the compound. The compounds are identified by the example number above where their preparations are described. All data in the anti-bradykinin, rat writhing and Randall-Selitto tests were obtained on oral administration.

[3] = system: adjuvant induced arthritis; test: developing adjuvant arthritis (AA) assay; format: in vivo; details: arthritic rats; printed * = p<0.01, ** = p<0.05
Procedure: Antirheumatic and anti-inflammatory activities of the compounds of the invention were determined using the developing adjuvant arthritis assay in rats and the plasma fibronectin assay in arthritic rats. The developing adjuvant arthritis assay was used in conjunction with the plasma fibronectin assay as a primary screening method in the evaluation of compounds for potential use as disease modifying anti-rheumatic drugs. The procedure used to induce arthritis in rats is a modification of the methods published by Pearson, J. Chron. Dis. 16, 863-874 (1973) and by Glenn et al., Amer. J. Vet. Res. 1180-1193 (1965). Adjuvant induced arthritis bears many of the traits of rheumatoid arthritis. It is a chronic, progressive, deforming arthritis of the peripheral joints, with a primary mononuclear cell response consisting of bone and joint space invasion by pannus. In order to detect disease modifying anti-rheumatic drug activity, drug treatment is started before the disease has become irrevocably established. Since such drugs are not designed to be administered prophylactically, drug treatment of adjuvant arthritis is initiated at a time when the disease is developing but is not yet irreversible. Animals develop significant systemic arthritic disease which can be measured by swelling of the non-injected rear paw (NIP) 15 to 20 days following an initial injection on day 1 of complete Freund's adjuvant into the right hindfoot paw.
as §1

[4] = system: mouse vasa deferentia preparation; test: mouse vas deferens test (MVD); format: cell-based; details: inhibition of contractions, in vitro, active at 5.0 μM or less
Source text: It has been shown previously that smoking marijuana reduces intraocular pressure in man [Helper and Frank, Marijuana Smoking and Intraocular Pressure., J. Am. Med. Assoc. 217, 1392 (1971)]. Topical application or systemic injection of delta-9 tetrahydrocannabinol, a principal active ingredient in marijuana, also reduces intraocular pressure [Purnell and Gregg, delta-9 Tetrahydrocannabinol, Euphoria and Intraocular Pressure in Man., Ann. Opth. 7, 921-923 (1975); Green and Pederson, Effect of delta-9 Tetrahydrocannabinol on Aqueous Dynamics and Ciliary Body Permeability in the Rabbit Eye., Exptl. Eye Research 15, 499-507 (1973); Colasanti, Craig and Allara, Intraocular Pressure, Ocular Toxicity and Neurotoxicity after Administration of Cannabinol or Cannibigerol, Exptl. Eye Research 39, 252-259 (1984)]. Similarly, synthetic cannabinoids also reduce intraocular pressure [Green, Symunds, Oliver and Elijah, Intraocular Pressure Following Systemic Administration of Cannabinoids., Curr. Eye Research 2, 247-253 (1982); Tiedeman, Shields, Weber, Crow, Coccetto, Harris and Howes, Opthalmology, 88, 270-277 (1981); Colasanti et al., supra]. Cannabinoid receptor binding sites can be defined as those to which radio-labelled 4-(1,1-dimethylheptyl)-2,3'-dihydroxy-6'alpha-(3-hydroxypropyl)-1', 2', 3', 4', 5', 6'-hexahydrobiphenyl (CP 55940) binds in a specific and saturable manner and the binding sites are heterogeneously distributed in the brain [Devane, Dysarz, Johnson, Melvin and Howlett, Determination and Characterization of a Cannabinoid Receptor in Rat Brain, Molecular Pharm. 34, 605-613 (1988)]. Natural and synthetic cannabinoids and certain of the compounds of the present invention, as more particularly described above, bind to CP 55940 binding sites. […] It is believed that agonist activity at the cannabinoid receptor mediates the anti-glaucoma actions of cannabinoids, and that agonist activity at this receptor correlates with ocular pressure lowering actions in man. Accordingly the cannabinoid receptor agonist activity of the compounds of the present invention indicate their usefulness in reducing ocular pressure.

[5] = Table 9, Examples, no route marked in the cell, read-out: ACH ED50
[6] = iv, Table 9, iv, read-out: ACH ED50 (iv)

SMILES	ED50 [1, 5] [mg/kg]	IC50 ([4]; Mus musculus) [µM]	also measured
COc1ccc(C(=O)c2c(C)n(C3CCCN(C)C3)c3ccccc23)cc1.Cl (racemic) [Example 4A, 1-(1-methyl-3-piperidinyl)-2-methyl-3-(4-methoxybenzoyl)-1H-indole hydrochloride]	33	0.65	RW percent inhibition at dose 17 ([2]; oral, dose level 17): 57%; NIP: percent inhibition of non-injected paw inflammation [3]: 50%; RPV: percent inhibition of injected paw [3]: 26%
COc1ccc(C(=O)c2c(C)n(C[C@@H]3CC[C@H](C)N3C)c3ccccc23)cc1 (relative stereo) [Example 1Z]	14	0.048	ED50 [1, 6]: 3 mg/kg
CN1CCN(C)C(Cn2cc(C(=O)c3cccc4ccccc34)c3ccccc32)C1 (stereo not shown) [3G (base)]		0.015	
CN1CC[N+](C)(C)CC1Cn1cc(C(=O)c2cccc3ccccc23)c2ccccc21 (stereo not shown) [3G (quaternary)]		0.156	
COc1ccc(C(=O)c2cn(C(C)C3CCCN3C)c3ccccc23)cc1 (stereo not shown) [Example 1AA]	23		ED50 [1, 6]: 5 mg/kg; ED50 [2]: 20 mg/kg; IC50 [4]: 0.127 µM
COc1ccc(C(=O)c2cn(C(C)C3CCCN3C)c3ccccc23)cc1 (stereo not shown) [Example 1AB]			ACH ED50 ([1]; Table 9, Examples, no route marked in the cell): 19 mg/kg; RW ED50 [2]: 10 mg/kg; IC50 [4]: 0.56 µM
CC(C1CCCN1C)n1cc(C(=O)c2ccccc2F)c2ccccc21 (stereo not shown) [Example 1AC]		0.111	inhibition in vivo at 100 mg/kg ([1]; Table 9): 40%
COc1ccc(C(=O)c2c(C)n(C(C)C3CCCN3C)c3ccccc23)cc1 (stereo not shown) [Example 1AF]	19	0.542	
COc1ccc(C(=O)c2c(C)n(CC3CCC(C)(C)N3C)c3ccccc23)cc1 (stereo not shown) [Example 1AH]		0.33	
Cc1c(C(=O)c2cccc3ccccc23)c2ccccc2n1CC1CN(C)CCO1 (stereo not shown) [Example 1G]		0.05	ED50 [1, 6]: 6 mg/kg; inhibition in vivo at 100 mg/kg ([1]; Table 9): 10%
COc1ccc(C(=O)c2cn(CC3CCCN(C)C3)c3ccccc23)cc1 (stereo not shown) [Example 1N]	91	0.094	RW ED50 [2]: 28.3 mg/kg
CN1CCCC(Cn2cc(C(=O)c3cccc4ccccc34)c3ccccc32)C1 (stereo not shown) [Example 1P]	144	0.028	NIP: percent inhibition of non-injected paw inflammation [3]: 38%; RPV: percent inhibition of injected paw [3]: 43%
CSc1ccc(C(=O)c2c(C)n(CC3CCCN3C)c3ccccc23)cc1 (stereo not shown) [Example 1V]	25	0.13	ED50 [2]: 7 mg/kg
Cc1c(C(=O)c2cccc3ccccc23)c2ccccc2n1C1CCCCN(C)C1 (stereo not shown) [Example 2AB]		0.013	inhibition in vivo at 100 mg/kg ([1]; Table 9): 30%
CN1CCCCC1Cn1cc(C(=O)c2ccccc2F)c2ccccc21 (stereo not shown) [Example 2AC]	10	0.003	ACH remark (Depr. = depressant) ([1]; Table 9): Depr.
CCc1ccc(C(=O)c2c(C)n(CC3CCCN3C)c3ccccc23)cc1 (stereo not shown) [Example 2AK]	40	0.025	ED50 [2]: 7 mg/kg

SMILES	ED50 [1, 5] [mg/kg]	IC50 ([4]; Mus musculus) [µM]	also measured
O=C(c1cccc2ccccc12)c1cn(CC2CCCCN2Cc2ccccc2)c2ccccc12 (stereo not shown) [Example 2AM]		0.051	
O=C(c1cccc2ccccc12)c1cn(C2CCCCN(Cc3ccccc3)C2)c2ccccc12 (stereo not shown) [Example 2AO]		0.48	
CN1CCCC1Cn1cc(C(=O)c2ccccc2F)c2ccccc21 (stereo not shown) [Example 2M]	53	0.039	
Cc1c(C(=O)c2cccc3ccccc23)c2ccccc2n1CC1CCCN1C (stereo not shown) [Example 2Q]		0.002	inhibition in vivo at 100 mg/kg ([1]; Table 9): 20%
CN1CCCCC1CCn1cc(C(=O)c2cccc3ccccc23)c2ccccc21 (stereo not shown) [Example 2U]		0.107	inhibition in vivo at 100 mg/kg ([1]; Table 9): 30%; RW percent inhibition at dose 30 ([2]; oral, dose level 30): 50%
COc1ccc(C(=O)c2cn(CC3CCCN3C)c3ccccc23)cc1 (stereo not shown) [Example 2W]	11	0.008	ACH remark (Depr. = depressant) ([1]; Table 9): Depr.; ED50 [2]: 3 mg/kg
CN1CCCCC(n2cc(C(=O)c3cccc4ccccc34)c3ccccc32)C1 (stereo not shown) [Example 2Z]		0.082	ACH percent inhibition at dose 30 (iv) ([1]; Table 9, dose level 30, iv): 80%; NIP: percent inhibition of non-injected paw inflammation [3]: 65%
O=C(c1cccc2ccccc12)c1cn(CC2COCCN2Cc2ccccc2)c2ccccc12 (stereo not shown) [Example 3F]		0.224	ED50 [1, 6]: 2.2 mg/kg
O=C(c1cccc2ccccc12)c1cn(CC2CCCCN2)c2ccccc12 (stereo not shown) [Example 4I]		0.0003	ACH percent inhibition at dose 30 ([1]; Table 9, dose level 30): 30%
Cc1c(C(=O)c2ccccc2F)c2ccccc2n1CC1CCC(C)N1 (stereo not shown) [Example 8E]		0.16	
O=C(c1cccc(F)c1)c1cn(CC2CCCN2)c2ccccc12 (stereo not shown) [Example 8F]		0.325	
O=C(c1cccc2ccccc12)c1cn(CC2COCCN2)c2ccccc12 (stereo not shown) [Example 8G]		0.0047	ACH percent inhibition at dose 30 ([1]; Table 9, dose level 30): 100%
COc1ccc(C(=O)c2c(C)n(C3CN(C)C3)c3ccccc23)cc1.O=C(O)/C=C\C(=O)O [Example 10A, 2-methyl-3-(4-methoxybenzoyl)-1-(1-methyl-3-azetidinyl)-1H-indole maleate]	40	0.495	
CN1CCOCC1Cn1cc(C(=O)c2cccc3ccccc23)c2ccccc21.Cl (stereo not shown) [Example 10C, 3-(1-naphthylcarbonyl)-1-[(4-methyl-3-morpholinyl)methyl]-1H-indole hydrochloride]		0.0004	ACH percent inhibition at dose 30 ([1]; Table 9, dose level 30): 50%
Cc1c(C(=O)c2ccc(O)cc2)c2ccccc2n1CC1CCCN1C (stereo not shown) [Example 11A, 2-methyl-3-(4-hydroxybenzoyl)-1-[(1-methyl-2-pyrrolidinyl)methyl]-1H-indole hydrochloride]		0.284	
Cc1c(C(=O)c2ccc(O)cc2)c2ccccc2n1CC1CCC(C)N1C (stereo not shown) [Example 11B, 2-methyl-3-(4-hydroxybenzoyl)-1-[(1,5-dimethyl-2-pyrrolidinyl)methyl]-1H-indole hydrochloride]		0.217	
